Experimental data published in patent US7691889B2, “Antimycobacterial compounds” (Lupin Limited, priority 2002, dated 2010).
≈ marks a conversion by molar mass, not a printed value. Read-outs that look alike come from different tables or passages of the source.

Legend:
M. tuberculosis 27294 = test: In vitro agar dilution assay (MIC), reference strain; format: cell-based, Mycobacterium tuberculosis; details: for MIC against M. tuberculosis 27294: Middlebrook 7H10; for MIC: Mycobacterium tuberculosis, 27294, Middlebrook 7H10, read-out: MIC against M. tuberculosis 27294
[1] = system: M. tuberculosis clinical isolates, sensitive; test: microbe, parasite or virus in culture; format: cell-based, Mycobacterium tuberculosis; details: for MIC against Clinical isolates Sensitive: Table I, agar dilution; for MIC: Mycobacterium tuberculosis
Acute toxicity in mice = format: in vivo; details: P. O.
M. fortuitum = test: In vitro agar dilution assay (MIC), M. fortuitum; format: cell-based; details: Table II
[2] = system: M. tuberculosis ATCC 27294 infection; test: Murine model of pulmonary tuberculosis; details: for Mean Log10 No. of CFU Lung / Mean Log10 No. of CFU Spleen: 5 day/week for 4 weeks, mice; for Mean Log10 No. of reduction Lung / Mean Log10 No. of reduction Spleen: difference from early controls
M. kansai = test: In vitro agar dilution assay (MIC), M. kansai; format: cell-based; details: Table II
[3] = read-out: MIC against Clinical isolates Sensitive

Molecule: O=C(CCC(=O)c1ccc2ccccc2c1)NC[C@H]1CN(c2ccc([N+]3([O-])CCOCC3)c(F)c2)C(=O)O1 [Compound 30, (S)-N-[[3-(3-fluoro-4-morpholinylphenyl)-2-oxo-5-oxazolidinyl]methyl]-4-(4-2-naphthyl)-4-oxobutanamide-N-oxide]
- MIC against M. tuberculosis 27294 (M. tuberculosis 27294): 0.5 µg/mL (≈ 0.959 µM)
- MIC against Clinical isolates Sensitive [1]: 0.5 µg/mL (≈ 0.959 µM)
- MIC M. tuberculosis Sensitive ([1]; Table II): 0.50 µg/mL (≈ 0.959 µM)
- LD0 (acute toxicity) (Acute toxicity in mice): > 1000 mg/kg
- MIC M. fortuitum (M. fortuitum): >16.0 µg/mL
- Mean Log10 No. of CFU Lung ([2]; 12.5 mg/kg by gavage): 4.34
- Mean Log10 No. of CFU Spleen ([2]; 12.5 mg/kg by gavage): 4.30
- Mean Log10 No. of reduction Lung ([2]; 12.5 mg/kg): 0.20
- Mean Log10 No. of reduction Spleen ([2]; 12.5 mg/kg): 0.26
- Mean Log10 No. of CFU Lung ([2]; 25 mg/kg by gavage): 2.21
- Mean Log10 No. of CFU Spleen ([2]; 25 mg/kg by gavage): 2.13
- Mean Log10 No. of reduction Lung ([2]; 25 mg/kg): 2.30
- Mean Log10 No. of reduction Spleen ([2]; 25 mg/kg): 2.49
- Mean Log10 No. of CFU Lung ([2]; 50 mg/kg by gavage): 2.12
- Mean Log10 No. of CFU Spleen ([2]; 50 mg/kg by gavage): 2.09
- Mean Log10 No. of reduction Lung ([2]; 50 mg/kg): 2.40
- Mean Log10 No. of reduction Spleen ([2]; 50 mg/kg): 2.53
- MIC M. kansai (M. kansai): 8.0 µg/mL (≈ 15.3 µM)

Molecule: O=C(CCC(=O)c1ccc2ccccc2c1)NC[C@H]1CN(c2ccc(-c3nc[nH]n3)c(F)c2)C(=O)O1 [Compound 48, (S)-N-[[3-(3-fluoro-4-(1,2,4-triazolyl)phenyl)-2-oxo-5-oxazolidinyl]methyl]-4-(2-naphthyl)-4-oxobutanamide]
- MIC (M. tuberculosis 27294): 2 µg/mL (≈ 4.1 µM)
- MIC [1, 3]: 2 to 4 µg/mL (≈ 4.1 to 8.21 µM)

Molecule: O=C(CCC(=O)c1ccc(Cl)cc1)NC[C@H]1CN(c2ccc(-c3nc[nH]n3)c(F)c2)C(=O)O1 [Compound 49, (S)-N-[[3-(3-fluoro-4-(1,2,4-triazolyl)phenyl)-2-oxo-5-oxazolidinyl]methyl]-4-(4-chlorophenyl)-4-oxobutanamide]
- MIC (M. tuberculosis 27294): 4 µg/mL (≈ 8.48 µM)
- MIC [1, 3]: 4 to 16 µg/mL (≈ 8.48 to 33.9 µM)

Molecule: CC(=O)Nc1ccc(C(=O)CCC(=O)NC[C@H]2CN(c3ccc(-c4nc[nH]n4)c(F)c3)C(=O)O2)cc1 [Compound 50, (S)-N-[[3-(3-fluoro-4-(1,2,4-triazolyl)phenyl)-2-oxo-5-oxazolidinyl]methyl]-4-(4-acetamidophenyl)-4-oxobutanamide]
- MIC (M. tuberculosis 27294): 2 µg/mL (≈ 4.04 µM)
- MIC [1, 3]: 2 to 4 µg/mL (≈ 4.04 to 8.09 µM)

Molecule: O=C(CCC(=O)c1cccs1)NC[C@H]1CN(c2ccc(N3CCCCC3)c(F)c2)C(=O)O1 [Compound 52, (S)-N-[[3-(3-fluoro-4-piperidylphenyl)-2-oxo-5-oxazolidinyl]methyl]-4-oxo-4-(2-thienyl)butanamide]
- MIC against M. tuberculosis 27294 (M. tuberculosis 27294): 2 µg/mL (≈ 4.35 µM)
- MIC against Clinical isolates Sensitive [1]: 2 µg/mL (≈ 4.35 µM)

Molecule: CC(=O)Nc1ccc(C(=O)CCC(=O)NC[C@H]2CN(c3ccc(N4CCCCC4)c(F)c3)C(=O)O2)cc1 [Compound 54, (S)-N-[[3-(3-fluoro-4-piperidylphenyl)-2-oxo-5-oxazolidinyl]methyl]-4-(4-acetamidophenyl)-4-oxobutanamide]
- MIC against M. tuberculosis 27294 (M. tuberculosis 27294): 8 µg/mL (≈ 15.7 µM)
- MIC against Clinical isolates Sensitive [1]: 8 to 16 µg/mL

Molecule: O=C(C=CC(=O)c1ccccc1)NC[C@H]1CN(c2ccc(N3CCCCC3)c(F)c2)C(=O)O1 [Compound 55, (S)-N-[[3-(3-fluoro-4-piperidylphenyl)-2-oxo-5-oxazolidinyl]methyl]-4-oxo-4-phenylbut-2-enamide]
- MIC against M. tuberculosis 27294 (M. tuberculosis 27294): >16 µg/mL
- MIC against Clinical isolates Sensitive [1]: >16 µg/mL

Molecule: CSc1ccc(C(=O)CCC(=O)NC[C@H]2CN(c3ccc(N4CCCC4)c(F)c3)C(=O)O2)cc1 [Compound 56, (S)-N-[[3-(3-fluoro-4-pyrrolidinylphenyl)-2-oxo-5-oxazolidinyl]methyl]-4-oxo-4-(4-thiomethylphenyl)butanamide]
- MIC against M. tuberculosis 27294 (M. tuberculosis 27294): >16 µg/mL
- MIC against Clinical isolates Sensitive [1]: >16 µg/mL

Molecule: NNC(=O)c1ccncc1 [Isoniazid, reference compound]
- MIC (M. tuberculosis 27294): 0.25 µg/mL (≈ 1.82 µM)
- MIC ([1]; read-out: MIC M. tuberculosis Sensitive): 0.25 µg/mL (≈ 1.82 µM)
- MIC [1, 3]: 0.12 to 0.25 µg/mL (≈ 0.875 to 1.82 µM)
- MIC (M. fortuitum; Mycolicibacterium fortuitum): > 16 µg/mL
- Mean Log10 No. of CFU Lung ([2]; 12.5 mg/kg by gavage): 2.95
- Mean Log10 No. of CFU Spleen ([2]; 12.5 mg/kg by gavage): 2.94
- Mean Log10 No. of reduction Lung ([2]; 12.5 mg/kg): 1.57
- Mean Log10 No. of reduction Spleen ([2]; 12.5 mg/kg): 1.68
- Mean Log10 No. of CFU Lung ([2]; 25 mg/kg by gavage): 2.11
- Mean Log10 No. of CFU Spleen ([2]; 25 mg/kg by gavage): 2.11
- Mean Log10 No. of reduction Lung ([2]; 25 mg/kg): 2.41
- Mean Log10 No. of reduction Spleen ([2]; 25 mg/kg): 2.51
- Mean Log10 No. of CFU Lung ([2]; 50 mg/kg by gavage): 2.03
- Mean Log10 No. of CFU Spleen ([2]; 50 mg/kg by gavage): 1.92
- Mean Log10 No. of reduction Lung ([2]; 50 mg/kg): 2.49
- Mean Log10 No. of reduction Spleen ([2]; 50 mg/kg): 2.70
- MIC (M. kansai): > 16 µg/mL

Molecule: CC(=O)NC[C@H]1CN(c2ccc(N3CCOCC3)c(F)c2)C(=O)O1 [Linezolid, (S)-N-[[3-[3-fluoro-4-(4-morpholinyl)phenyl]-2-oxo-5-oxazolidin-yl]methyl]-acetamide, reference compound]
- MIC (M. tuberculosis 27294): 0.5 µg/mL (≈ 1.48 µM)
- MIC [1, 3]: 0.25 to 0.5 µg/mL (≈ 0.741 to 1.48 µM)

Molecule: (S)-N-[[3-(3-fluoro-4-(1,2,4-triazolyl)phenyl)-2-oxo-5-oxazolidinyl]methyl]-4-(2′,2′-dimethyl-4-ethylphenyl)-4-oxobutanamide [Compound 45]
- MIC against M. tuberculosis 27294 (M. tuberculosis 27294): 2.0 µg/mL
- MIC against Clinical isolates Sensitive [1]: 2 to 4 µg/mL

Molecule: (S)-N-[[3-(3-fluoro-4-(1,2,4-triazolyl)phenyl)-2-oxo-5-oxazolidinyl]methyl]-4-oxo-4-phenylbutanamide [Compound 40]
- MIC against M. tuberculosis 27294 (M. tuberculosis 27294): 1 µg/mL
- MIC against Clinical isolates Sensitive [1]: 1 to 2 µg/mL

Molecule: (S)-N-[[3-(3-fluoro-4-morpholinylphenyl)-2-oxo-5-oxazolidinyl]methyl]-4-[4-(2′,2′-dimethyl-4-ethylphenyl)-4-oxobutanamide [Compound 20]
- MIC against M. tuberculosis 27294 (M. tuberculosis 27294): 1 µg/mL
- MIC against Clinical isolates Sensitive [1]: 1 to 2 µg/mL
